Reference: US5091539A, “Azolyl cycloalkanol derivatives and agricultural fungicides” (Shionogi & Co., Ltd., priority 1984, dated 1992)
Converted amounts (≈) assume the structure as drawn.

What was measured:
Sphaerotheca fuliginea [1] = assay: Control test to powdery mildew of cucumber by vapor (filter paper disks); format: in vivo
Experimental: (1) The first leaves of young cucumber (Cultivar: Matsukaze) planted in pot of 9 cm in diameter were inoculated with spore suspension of Sphaerotheca fuliginea. After the plants were kept in a greenhouse for 2 days, thin cover plates, 15 mm in diameter, were put on the first leaves. Filter paper disks soaked with 80 μl of test solution at a concentration of 31.3, 7.8, 2.0 or 0.5 ppm were put on the plates for 3 days. Disease degrees were observed 14 days after the inoculation.
It is evaluated as + when an inhibition zone was observed around the plate, as ± when the inhibition zone has nearly the same diameter (8 mm) as that of plate or as - when there is no inhibition zone.
(§1) (1) Test methods and evaluation are the same as those in Tests 2, 4 and 6.

Sclerotinia sclerotiorum = assay: Control test to Sclerotinia rot of cucumber; format: in vivo
From the text: (1) This test was practised in the same manner as in the above test, control test of Botrytis rot (gray mold) of cucumber, except for using the mycelium of Sclerotinia sclerotiorum as inoculm. The same as in test 2.

Sphaerotheca fuliginea [2] = assay: Control test to powdery mildew of cucumber (foliar and soil treatment); format: in vivo; details: index 0-10
Diaporthe citri = assay: Anti-fungal activity in vitro; format: cell-based; details: 48 h, GY medium, 28° C., 2 days
Experimental: (§2) (1) Each test compound was diluted by two-fold dilution with GY medium (2% glucose and 0.4% yeast extract) containing 0.01% Tween 80 (trademark). Every diluted solution was inoculated with spore suspension (10^5-5 spores/ml) of Alternaria kikuchiana or a hyphae disk with agar (4 mm in diameter) of other fungi and incubated at 28° C. for 2 days.

Corticium rolfsii = assay: Anti-fungal activity in vitro; format: cell-based; details: Agroathelia rolfsii, 48 h; GY medium, 28° C., 2 days
Experimental: as §2

Ustilago nuda = assay: Anti-fungal activity in vitro; format: cell-based; details: 48 h, GY medium, 28° C., 2 days
Experimental: as §2

Monilinia fructicola = assay: Anti-fungal activity in vitro; format: cell-based; details: 48 h, GY medium, 28° C., 2 days
Experimental: as §2

Cladosporium herbarum = assay: Anti-fungal activity in vitro; format: cell-based; details: 48 h, GY medium, 28° C., 2 days
Experimental: as §2

Alternaria kikuchiana = assay: Anti-fungal activity in vitro; format: cell-based; details: 48 h, GY medium, 28° C., 2 days, spore suspension
Experimental: as §2

Cochiobolus sativus = assay: Anti-fungal activity in vitro; format: cell-based; details: 48 h; GY medium, 28° C., 2 days
Experimental: as §2

Pyrenophora graminea = assay: Anti-fungal activity in vitro; format: cell-based; details: 48 h, GY medium, 28° C., 2 days
Experimental: as §2

[3] = system: powdery mildew of cucumber and Borytis rot (gray mold) of cucumber; assay: Comparative test of cis- and trans-isomers; format: in vivo; details: cis isomer vs trans isomer, about
From the text: Each cis- and trans-isomers of 1-(4-chlorophenyl)-2-(1,2,4-triazol-1-yl)cyclohexanol (Compound 22 and the trans-isomer)) and 1-(4-fluorophenyl)-2-(1,2,4-triazol-1-yl)cyclohexanol (Compound 28 and the trans-isomer) are subjected to control test to powdery mildew of cucumber and to Borytis rot (gray mold) of cucumber.
as §1

Botrytis cinerea = assay: Control test of Botrytis rot (gray mold) of cucumber; format: in vivo
Puccinia coronata = assay: Control test of crown rust of oat; format: in vivo
Experimental: (1) Young oats (Cultivar: Pc38) grown in pots in a greenhouse were (i) sprayed with 10 ml each of solution of the test compounds at a prescribed concentration and after air-drying, they were inoculated with 15 mg of uredospores of Puccinia coronata per 20 pots (protective spraying) or (ii) sprayed with the test solution 3 days after inoculation of uredospores. After each plant was kept at 20°-25° C. in a greenhouse for 2 weeks, number of uredia was counted on the first leaf.

## O[C@@]1(c2ccc(Cl)cc2)CCCC[C@H]1n1cncn1 (relative stereo) [Compound 22, cis-1-(4-chlorophenyl)-2-(1,2,4-triazol-1-yl)cyclohexanol]
Sphaerotheca fuliginea [1]; Table 6, 0.5 ppm
  Protective Effect by Vapor: -
Sphaerotheca fuliginea [1]; Table 6, 2.0 ppm
  Protective Effect by Vapor: -
Sphaerotheca fuliginea [1]; Table 6, 7.8 ppm
  Protective Effect by Vapor: +
Sphaerotheca fuliginea [1]; Table 6, 31.3 ppm
  Protective Effect by Vapor: +
Sphaerotheca fuliginea [1]; Table 9, 2.0 ppm
  Powdery mildew, Vapor Effect: -
Sphaerotheca fuliginea [1]; Table 9, 7.8 ppm
  Powdery mildew, Vapor Effect: ±
Sphaerotheca fuliginea [1]; Table 9, 31.3 ppm
  Powdery mildew, Vapor Effect: +
Sclerotinia sclerotiorum; 31.3 ppm
  Percent Disease Control, Curative Spraying: 93%
  Percent Disease Control, Protective Spraying: 67%
Sclerotinia sclerotiorum; 125 ppm
  Percent Disease Control, Curative Spraying: 95%
  Percent Disease Control, Protective Spraying: 100%
Sphaerotheca fuliginea [2]; Table 9, 0.03 ppm
  Powdery mildew, Foliar Treatment, Curative Effect: 9
  Powdery mildew, Foliar Treatment, Protective Effect: 0
Sphaerotheca fuliginea [2]; Table 9, 0.12 ppm
  Powdery mildew, Foliar Treatment, Curative Effect: 10
  Powdery mildew, Foliar Treatment, Protective Effect: 9
Sphaerotheca fuliginea [2]; Table 9, 0.5 ppm
  Powdery mildew, Foliar Treatment, Curative Effect: 10
  Powdery mildew, Foliar Treatment, Protective Effect: 10
  Powdery mildew, Soil Treatment, Protective Effect: 0
Sphaerotheca fuliginea [2]; Table 9, 2.0 ppm
  Powdery mildew, Foliar Treatment, Curative Effect: 10
  Powdery mildew, Foliar Treatment, Protective Effect: 10
  Powdery mildew, Soil Treatment, Protective Effect: 10
Sphaerotheca fuliginea [2]; Table 9, 7.8 ppm
  Powdery mildew, Soil Treatment, Protective Effect: 10
Sphaerotheca fuliginea [2]; Table 9, 31.3 ppm
  Powdery mildew, Soil Treatment, Protective Effect: 10
Sphaerotheca fuliginea [2]; second Table 4, 0.5 ppm
  Foliar Treatment, Curative Effect: 10
  Foliar Treatment, Protective Effect: 5 (Disease sign is observed on the leaf in about 30%.)
  Soil Treatment, Protective Effect: 0
Sphaerotheca fuliginea [2]; second Table 4, 2.0 ppm
  Foliar Treatment, Curative Effect: 10
  Foliar Treatment, Protective Effect: 10
  Soil Treatment, Protective Effect: 5 (Disease sign is observed on the leaf in about 30%.)
Sphaerotheca fuliginea [2]; second Table 4, 7.8 ppm
  Foliar Treatment, Curative Effect: 10
  Foliar Treatment, Protective Effect: 10
  Soil Treatment, Protective Effect: 10
Sphaerotheca fuliginea [2]; second Table 4, 31.3 ppm
  Foliar Treatment, Curative Effect: 10
  Foliar Treatment, Protective Effect: 10
  Soil Treatment, Protective Effect: 10
Diaporthe citri
  MIC: 12.5 µg/mL (≈ 45 µM)
Corticium rolfsii
  MIC: > 50 µg/mL
Ustilago nuda
  MIC: 12.5 µg/mL (≈ 45 µM)
Monilinia fructicola
  MIC: 0.78 µg/mL (≈ 2.81 µM)
Cladosporium herbarum
  MIC: 6.25 µg/mL (≈ 22.5 µM)
Alternaria kikuchiana
  MIC: 50 µg/mL (≈ 180 µM)
Cochiobolus sativus
  MIC: 6.25 µg/mL (≈ 22.5 µM)
Pyrenophora graminea
  MIC: 12.5 µg/mL (≈ 45 µM)
[3]
  times more effective than the corresponding trans isomer: 4-16 times
Botrytis cinerea; Table 2, 31.3 ppm
  Percent Disease Control, Curative Spraying: 46%
  Percent Disease Control, Protective Spraying: 100%
Botrytis cinerea; Table 2, 125 ppm
  Percent Disease Control, Curative Spraying: 89%
  Percent Disease Control, Protective Spraying: 100%
Botrytis cinerea; Table 9, 7.8 ppm
  Gray Mold, Percent Disease Control, Curative Spraying: 20%
  Gray Mold, Percent Disease Control, Protective Spraying: 35%
Botrytis cinerea; Table 9, 31.3 ppm
  Gray Mold, Percent Disease Control, Curative Spraying: 88%
  Gray Mold, Percent Disease Control, Protective Spraying: 62%
Botrytis cinerea; Table 9, 125 ppm
  Gray Mold, Percent Disease Control, Curative Spraying: 82%
  Gray Mold, Percent Disease Control, Protective Spraying: 78%
Puccinia coronata; 12.5 ppm
  Percent Disease Control, Curative Spraying: 64%
  Percent Disease Control, Protective Spraying: 100%
Puccinia coronata; 25 ppm
  Percent Disease Control, Curative Spraying: 88%
  Percent Disease Control, Protective Spraying: 100%
Puccinia coronata; 50 ppm
  Percent Disease Control, Curative Spraying: 100%
  Percent Disease Control, Protective Spraying: 100%
